In article PMC11272821, “Mechanistic safety assessment via multi-omic characterisation of systemic pathway perturbations following in vivo MAT2A inhibition” (Archives of Toxicology, 2024):

Key:
[1] = biological target: T1, Dopamine transporter (DAT) (Homo sapiens, UniProt Q01959); assay: Radioligand binding assay
T1 construct: Eurofins
Procedure: (§1) Secondary pharmacology assays were performed at Eurofins using standard experimental techniques against a total of 86 targets across a broad pharmacological space. Assay details along with experimental protocols are described at https://www.eurofinsdiscoveryservices.com. […] Assays measuring substrate turnover or phosphorylation by isolated proteins were used for kinase and enzyme targets, allowing direct determination of the mode of action of the compounds. […] Assays were run in eight points concentration response mode with half log dilutions and IC50, EC50 or Ki (Cheng and Prusoff [1973]) values determined.

5-HT4 receptor = biological target: T2, 5-HT4 receptor (Homo sapiens, UniProt Q13639); assay: Radioligand binding assay
T2 construct: Eurofins
Procedure: as §1

D1 dopamine receptor = biological target: T3, D1 dopamine receptor (Homo sapiens, UniProt P21728); assay: Radioligand binding assay
T3 construct: Eurofins
T3 sequence (P21728 whole entry): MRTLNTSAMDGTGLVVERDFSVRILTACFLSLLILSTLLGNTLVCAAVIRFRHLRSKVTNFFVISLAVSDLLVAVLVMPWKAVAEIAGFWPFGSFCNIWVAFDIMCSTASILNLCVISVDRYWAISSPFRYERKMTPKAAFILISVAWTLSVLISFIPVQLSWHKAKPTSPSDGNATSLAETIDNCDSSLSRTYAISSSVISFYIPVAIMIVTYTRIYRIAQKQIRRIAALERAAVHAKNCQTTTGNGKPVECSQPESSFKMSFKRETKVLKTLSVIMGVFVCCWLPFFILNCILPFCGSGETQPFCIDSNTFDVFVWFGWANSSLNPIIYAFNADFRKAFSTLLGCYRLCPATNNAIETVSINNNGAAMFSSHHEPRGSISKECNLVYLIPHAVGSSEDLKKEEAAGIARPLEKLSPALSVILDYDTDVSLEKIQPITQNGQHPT
Procedure: as §1

M1 muscarinic receptor = biological target: T4, M1 muscarinic receptor (Homo sapiens, UniProt P11229); assay: Radioligand binding assay
T4 construct: Eurofins
Procedure: as §1

Thromboxane A2 synthase = biological target: T5, Thromboxane A2 synthase (Homo sapiens, UniProt P24557); assay: Enzyme assay; format: biochemical
T5 construct: Eurofins
Procedure: as §1

[2] = biological target: T6, Phosphodiesterase PDE10A2 (Homo sapiens, UniProt Q9Y233); assay: Enzyme assay; format: biochemical
T6 construct: Eurofins
T6 sequence (Q9Y233 267-1055 limits assumed): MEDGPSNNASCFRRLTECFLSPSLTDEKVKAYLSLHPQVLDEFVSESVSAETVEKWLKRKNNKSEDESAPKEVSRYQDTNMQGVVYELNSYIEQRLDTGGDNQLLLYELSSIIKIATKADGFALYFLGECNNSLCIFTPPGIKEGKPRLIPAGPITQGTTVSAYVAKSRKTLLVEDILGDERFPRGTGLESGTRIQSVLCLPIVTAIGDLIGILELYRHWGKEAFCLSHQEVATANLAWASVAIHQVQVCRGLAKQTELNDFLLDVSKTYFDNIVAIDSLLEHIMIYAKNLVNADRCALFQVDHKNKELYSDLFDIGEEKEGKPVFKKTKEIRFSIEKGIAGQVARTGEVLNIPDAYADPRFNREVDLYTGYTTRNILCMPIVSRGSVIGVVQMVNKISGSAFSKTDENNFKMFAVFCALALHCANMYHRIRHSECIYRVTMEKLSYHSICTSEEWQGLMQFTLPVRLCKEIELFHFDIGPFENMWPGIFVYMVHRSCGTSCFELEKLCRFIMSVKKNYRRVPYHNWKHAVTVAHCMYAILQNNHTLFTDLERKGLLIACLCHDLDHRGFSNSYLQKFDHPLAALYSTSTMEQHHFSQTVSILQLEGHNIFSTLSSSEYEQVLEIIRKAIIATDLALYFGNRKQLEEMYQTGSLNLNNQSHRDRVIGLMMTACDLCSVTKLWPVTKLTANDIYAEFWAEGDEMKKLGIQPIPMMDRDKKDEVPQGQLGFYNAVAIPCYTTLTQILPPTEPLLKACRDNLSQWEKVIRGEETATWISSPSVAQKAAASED
Procedure: as §1

[3] = biological target: T7, Fibroblast growth factor receptor 1 kinase (FGFR1 kinase) (Homo sapiens, UniProt P11362); assay: Enzyme assay; format: biochemical
T7 construct: Eurofins
Procedure: as §1

Aurora A kinase = biological target: T8, Aurora A kinase (Homo sapiens, UniProt O14965); assay: Enzyme assay; format: biochemical
T8 construct: Eurofins
Procedure: as §1

[4] = biological target: T9, Neurotrophic receptor kinase 1 (NRK1) (Homo sapiens, UniProt P04629); assay: Enzyme assay; format: biochemical
T9 construct: Eurofins
Procedure: as §1

[5] = biological target: T10, Glycogen synthase kinase-3 β (Homo sapiens, UniProt P49841); assay: Enzyme assay; format: biochemical
T10 construct: Eurofins
T10 sequence (P49841 whole entry): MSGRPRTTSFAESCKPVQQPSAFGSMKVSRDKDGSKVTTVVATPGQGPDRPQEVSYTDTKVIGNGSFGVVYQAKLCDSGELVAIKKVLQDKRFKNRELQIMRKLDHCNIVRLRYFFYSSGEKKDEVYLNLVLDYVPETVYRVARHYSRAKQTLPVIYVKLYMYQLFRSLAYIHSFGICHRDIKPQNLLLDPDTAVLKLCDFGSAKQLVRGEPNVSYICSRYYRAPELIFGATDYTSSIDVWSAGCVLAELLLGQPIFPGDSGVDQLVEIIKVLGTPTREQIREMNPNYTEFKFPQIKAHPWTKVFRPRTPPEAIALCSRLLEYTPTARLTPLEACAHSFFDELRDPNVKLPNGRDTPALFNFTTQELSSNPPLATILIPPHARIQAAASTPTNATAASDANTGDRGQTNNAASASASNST
Procedure: as §1

Phosphodiesterase PDE4D2 = biological target: T11, Phosphodiesterase PDE4D2 (Homo sapiens, UniProt Q08499); assay: Enzyme assay; format: biochemical
T11 construct: Eurofins
Procedure: as §1

[6] = biological target: T12, Prostaglandin-endoperoxide synthase 2 (COX2) (Homo sapiens, UniProt P35354); assay: Enzyme assay; format: biochemical
T12 construct: Eurofins
Procedure: as §1

[7] = biological target: T13, Kinase insert domain receptor kinase (KDR) (Homo sapiens, UniProt P35968); assay: Enzyme assay; format: biochemical
T13 construct: Eurofins
T13 sequence (P35968 20-1356): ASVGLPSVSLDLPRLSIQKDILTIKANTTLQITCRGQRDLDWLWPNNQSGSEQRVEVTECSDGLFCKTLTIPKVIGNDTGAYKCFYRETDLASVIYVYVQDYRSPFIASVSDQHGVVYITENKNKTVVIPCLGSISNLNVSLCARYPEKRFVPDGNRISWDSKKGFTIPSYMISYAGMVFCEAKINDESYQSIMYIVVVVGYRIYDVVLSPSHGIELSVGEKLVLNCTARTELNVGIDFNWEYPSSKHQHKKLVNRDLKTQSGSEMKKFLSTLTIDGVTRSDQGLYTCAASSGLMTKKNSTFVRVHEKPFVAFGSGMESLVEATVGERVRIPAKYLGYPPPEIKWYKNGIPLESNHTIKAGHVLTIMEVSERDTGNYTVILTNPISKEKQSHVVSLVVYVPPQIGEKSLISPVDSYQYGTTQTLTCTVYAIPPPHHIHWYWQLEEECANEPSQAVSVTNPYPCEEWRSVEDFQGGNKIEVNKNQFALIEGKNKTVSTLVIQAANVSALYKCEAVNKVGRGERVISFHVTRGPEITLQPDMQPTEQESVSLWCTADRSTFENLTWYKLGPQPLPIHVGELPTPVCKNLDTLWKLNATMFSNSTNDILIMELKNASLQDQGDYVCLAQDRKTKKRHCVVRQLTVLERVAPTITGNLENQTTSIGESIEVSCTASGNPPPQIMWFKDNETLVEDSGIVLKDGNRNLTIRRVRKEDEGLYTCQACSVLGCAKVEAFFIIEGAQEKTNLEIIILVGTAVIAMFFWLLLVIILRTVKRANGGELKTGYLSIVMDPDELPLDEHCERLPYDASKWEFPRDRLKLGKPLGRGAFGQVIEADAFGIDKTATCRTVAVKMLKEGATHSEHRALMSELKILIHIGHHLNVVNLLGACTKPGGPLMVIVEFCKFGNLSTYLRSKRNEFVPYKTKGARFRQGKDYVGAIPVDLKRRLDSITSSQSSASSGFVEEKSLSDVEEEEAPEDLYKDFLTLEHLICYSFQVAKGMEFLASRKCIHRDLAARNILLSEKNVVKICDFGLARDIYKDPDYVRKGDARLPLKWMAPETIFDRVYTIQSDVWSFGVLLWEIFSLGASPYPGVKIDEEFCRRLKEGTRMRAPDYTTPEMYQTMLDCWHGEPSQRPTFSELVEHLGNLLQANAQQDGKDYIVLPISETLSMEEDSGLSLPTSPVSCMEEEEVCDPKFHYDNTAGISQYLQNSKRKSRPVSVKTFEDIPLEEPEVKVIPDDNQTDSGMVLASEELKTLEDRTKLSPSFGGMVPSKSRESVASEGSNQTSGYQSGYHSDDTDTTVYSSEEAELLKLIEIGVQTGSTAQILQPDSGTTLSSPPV
Procedure: as §1

SAM = assay: Targeted LC–MS of SAM in plasma, liver, brain and heart; format: in vivo, rat
Procedure: SAM and methionine levels were quantified in plasma samples and tissues using Ultra Performance Liquid Chromatography (UPLC) coupled with quantitative MS in ESI positive ion mode as described in Supplementary M&M.
For LCMS analysis, standard curves were spiked to give a calibrated range of 1.0 – 1000 nM for SAM and 1.0 – 2000 for methionine. 5 µL of standard spike solution was added to 45 µL of ACN/MeOH/H2O (40/40/20 v/v/v) and 2.5 µL of deuterated citrulline is added as an internal standard. A further calibration curve was prepared with 5 µL blank mouse plasma, 5 µL of standard and 40 µL of 40:40:20 Acetonitrile:Methanol:0.5% formic acid (Aq) with 2.5 µL of deuterated citrulline was used to investigate matrix suppression effects. Blank plasma was also diluted 1:10 with ACN/MeOH/H2O (40/40/20 v/v/v) and was also analysed to establish systemic biomarker levels.
Metabolomic sample preparation and analysis. Tissue samples (liver, brain, heart) were extracted with 1 mL of ACN/MeOH/H2O 40/40/20 v/v/v per 100 mg material in a PrecellysCK28K-2 mL tube. Tissues were homogenised/extracted in 3x20 sec shake at 5500 rpm and centrifuged for 5 min at 10,621g. After centrifugation a maximum of 800 µL clear supernatant was transferred to cryovials and the same amount of extraction solvent used in the first step was added to tissue precipitate. Extraction procedure was repeated as above and clear supernatants combined in the same cryovial and vial labelled as polar metabolite extract. On the remaining tissue pellet 1ml (per100mg tissue material) of Butanol/MeOH 3/1v/v was added and the above extraction sequence applied. Resulted clear supernatant transferred to a clean cryovial and labelled as lipid extract. All samples kept at the lowest available temperature (0 °C) throughout the extraction process and stored at -80 °C until further analysis.

86 targets = assay: Secondary pharmacology profiling against 86 targets (Eurofins); details: BID dosing of 3, 10 or 30 mg/kg for 7 days
Procedure: as §1

HCT116 MTAP KO cells = assay: HCT116 cell SDMA assay, MTAP KO; format: cell-based
Excerpt: The structure and in vitro properties of the compound are shown in Table 1 together with potency in the HCT116 isogenic cell line (MTAP WT and KO) and in the MAT2A biochemical assay (SAM endpoint).

LogD (pH 7.4) = format: physicochemical
rat liver transcriptome = assay: Liver transcriptomics; format: in vivo
Procedure: Total RNA was purified from liver samples with RNAdvance Tissue™ kit by Beckman Coulter Life Sciences according to manufacturer’s instructions. The method was carried out in an automated robotic solution with Biomek i7 Hybrid™. The concentration and quality of isolated RNA molecules were measured applying parallel capillary electrophoresis using Agilent Fragment Analyzer 5300 (DNF-471-33-SS Total RNA 15nt). The data were analysed in ProSize data analysis software to derive the concentration and RNA quality numbers (RQN) for individual samples.
The double-stranded cDNA obtained with Poly (A)-mRNA enrichment (500 ng total RNA input) was subjected to library preparation using KAPA Hyper Prep Kit (Kapa Biosystems, MA, USA) according to manufacturer’s protocol. The libraries were pooled in a single library and were sequenced on an Illumina NovaSeq6000 with a v1.5 SP 100 cycle kit as paired-end reads to PE51bp. The sequencing runs were carried out according to the manufacturer’s instructions.

hERG = hERG (Homo sapiens, UniProt Q12809); assay: hERG safety assay; format: cell-based; details: Full curve
Sequence of hERG (Q12809 whole entry): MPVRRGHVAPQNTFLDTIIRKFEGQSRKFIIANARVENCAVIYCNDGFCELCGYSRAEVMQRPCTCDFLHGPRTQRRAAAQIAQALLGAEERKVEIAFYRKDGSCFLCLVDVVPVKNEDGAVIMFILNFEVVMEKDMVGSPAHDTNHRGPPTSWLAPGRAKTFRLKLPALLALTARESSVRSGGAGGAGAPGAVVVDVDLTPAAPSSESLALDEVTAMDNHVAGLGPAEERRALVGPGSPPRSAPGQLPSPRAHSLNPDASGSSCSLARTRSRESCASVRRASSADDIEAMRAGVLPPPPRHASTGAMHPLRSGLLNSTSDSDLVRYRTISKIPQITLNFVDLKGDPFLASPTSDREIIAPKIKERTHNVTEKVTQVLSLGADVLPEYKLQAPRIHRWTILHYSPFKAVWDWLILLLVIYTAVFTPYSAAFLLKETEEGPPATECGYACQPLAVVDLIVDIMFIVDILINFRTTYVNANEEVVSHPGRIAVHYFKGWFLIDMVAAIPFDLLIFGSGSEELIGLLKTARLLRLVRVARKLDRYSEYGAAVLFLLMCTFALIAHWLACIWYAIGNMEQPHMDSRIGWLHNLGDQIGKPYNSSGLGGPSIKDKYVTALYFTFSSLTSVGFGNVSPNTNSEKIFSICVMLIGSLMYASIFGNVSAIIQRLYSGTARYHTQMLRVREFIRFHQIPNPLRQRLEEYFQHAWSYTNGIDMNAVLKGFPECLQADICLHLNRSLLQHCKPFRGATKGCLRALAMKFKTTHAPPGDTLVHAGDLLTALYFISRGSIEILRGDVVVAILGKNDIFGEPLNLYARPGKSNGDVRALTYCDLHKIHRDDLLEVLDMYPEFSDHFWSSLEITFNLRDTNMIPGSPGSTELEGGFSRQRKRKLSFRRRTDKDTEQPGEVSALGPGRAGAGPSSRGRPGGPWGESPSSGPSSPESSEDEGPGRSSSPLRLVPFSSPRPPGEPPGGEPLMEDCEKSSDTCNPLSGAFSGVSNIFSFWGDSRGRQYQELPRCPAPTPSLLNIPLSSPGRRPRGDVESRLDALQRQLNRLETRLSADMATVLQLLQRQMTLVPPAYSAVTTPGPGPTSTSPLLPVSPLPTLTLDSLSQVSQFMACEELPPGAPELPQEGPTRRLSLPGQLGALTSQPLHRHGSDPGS
Excerpt: Full curve IC50 (µM) for hERG (human ether-a-go-go-related gene) and the cardiac ion channel panel (sodium and potassium ion channels; Nav1.5, IKs, Kv4.3), along with the L-type Calcium channel (Cav-1.2 Ver; verapamil, DIL; diltiazem), HepG2 C3A 3D spheroids, HepG2 C3A (2D cultures in glucose or galactose media), and THP1 cytotoxicity.

T1 sequence (Q01959 whole entry): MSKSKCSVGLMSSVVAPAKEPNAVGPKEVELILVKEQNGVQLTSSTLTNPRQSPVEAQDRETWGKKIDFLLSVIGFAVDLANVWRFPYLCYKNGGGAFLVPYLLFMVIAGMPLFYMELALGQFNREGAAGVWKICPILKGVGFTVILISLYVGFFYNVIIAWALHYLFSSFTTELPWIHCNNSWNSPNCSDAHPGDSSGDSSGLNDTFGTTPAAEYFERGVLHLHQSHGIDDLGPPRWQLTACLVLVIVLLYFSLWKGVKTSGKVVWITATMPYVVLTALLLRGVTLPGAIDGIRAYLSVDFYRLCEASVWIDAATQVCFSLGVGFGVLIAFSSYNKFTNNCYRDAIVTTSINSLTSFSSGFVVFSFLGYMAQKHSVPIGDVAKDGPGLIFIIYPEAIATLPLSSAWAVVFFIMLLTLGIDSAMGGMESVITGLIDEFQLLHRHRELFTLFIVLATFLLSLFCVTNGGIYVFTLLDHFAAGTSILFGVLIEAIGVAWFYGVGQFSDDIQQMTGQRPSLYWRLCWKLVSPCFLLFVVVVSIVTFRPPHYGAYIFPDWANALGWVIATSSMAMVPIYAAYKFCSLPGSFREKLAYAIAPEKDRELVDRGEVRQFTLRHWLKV

In the case of `Cn1cc2cc(-c3cc4[nH]nc(C5CC5)c4n(-c4ccc(OC(F)F)cc4)c3=O)ccc2n1` [AZ’9567], the Ki [1] is reported as 22.6 µM, the Ki (5-HT4 receptor) is reported as 10.3 µM and the Ki (D1 dopamine receptor) is reported as 35 µM. For the same molecule, the Ki (M1 muscarinic receptor) was 69.7 µM, the IC50 (Thromboxane A2 synthase) was 9 µM and the IC50 [2] was 10.8 µM. For the same molecule, the IC50 [3] was 49.9 µM, the IC50 (Aurora A kinase) was 84.1 µM and the IC50 [4] was 38.3 µM. The IC50 [5] was 1600 nM, the IC50 (Phosphodiesterase PDE4D2) was 4.1 µM and the IC50 [6] was 44 µM. For the same molecule, the IC50 [7] was 9.5 µM, the “plasma SAM decrease, lower than the vehicle controls” value (SAM; 30 mg/kg BID) was 70% and the “brain SAM change” value (SAM; 3 and 10 mg/kg BID) was “no significant change”. The “heart SAM decrease” value (SAM; all dose levels) was roughly 90%, the “liver SAM decrease” value (SAM; all doses) was ~ 45% and the “cover of secondary pharmacology targets by plasma free Cmax in rats” value (86 targets) was “none of these targets was covered”. For the same molecule, the “HCT116 cell SDMA pIC50 MTAP KO” value (HCT116 MTAP KO cells) was 8.6, the “LogD (pH 7.4)” value (LogD (pH 7.4)) was 3.4 and the “differentially expressed liver genes” value (rat liver transcriptome; high dose (30 mg/kg BID)) was 1638. For the same molecule, the “differentially expressed liver genes” value (rat liver transcriptome; low dose (3 mg/kg BID)) was 2080 and the IC50 (hERG) was 33.1 µM.
